Target: T1, Fibrillarin-NanoLuc (Oplophorus gracilirostris, UniProt Q9GV45, A31E/A60N/A81I/F95D/I117V/K70R/L54V/L99Q/M102K/N193R/P142E/Q151K/Q38R/Q45L/V71I/Y165I)
T1 construct: endogenous in cells; host or cells: 293T, CRISPR/PITCh knock-in at the FBL locus
Assay: cell-based
Conditions: HEK-293T; 500 nM, 10 h; read-out: Dmax (densitometry)

T1 sequence (Q9GV45 other isoform, or with tags, fused parts or gaps with the stated changes): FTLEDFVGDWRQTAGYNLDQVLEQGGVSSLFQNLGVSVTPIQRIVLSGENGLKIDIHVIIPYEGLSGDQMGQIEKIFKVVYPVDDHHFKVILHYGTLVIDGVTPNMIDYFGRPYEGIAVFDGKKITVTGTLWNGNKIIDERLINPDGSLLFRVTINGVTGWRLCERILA

SMILES: CCc1cccc(N(CC)C(=O)Cn2c(C(=O)NC3CCC(C(=O)NCCCCCCCC(=O)NCCCCNc4cccc5c4C(=O)N(C4CCC(=O)NC4=O)C5=O)CC3)cc3ccccc32)c1 (stereo not shown) [NC4]
- Dmax at 0.5 µM: ~52.9%
